Each block holds one molecule with its values, some of them ahead of it.
What was measured:
[1] = Determination of the octanol/water partition coefficients (logPow) by HPLC, OECD guideline 117; assay type: physicochemical; conditions: rp 18 hplc; HPLC method, RP 18 column, OECD 117; read-out: logPow (octanol/water partition coefficient)
[2] = Determination of the relative leaching rate from house paint (watering with tap water, HPLC of methanol extracts); assay type: physicochemical
Source text: First, 128 parts by weight (PW) of water were initially charged. 11 PW of a 10% strength by weight solution of Calgon N (sodium triphosphate) were subsequently stirred into the water. Thereafter, 2 PW of Tylose MHB 6000 (from Hoechst AG), 3 PW of Additol XW 330 (from Hoechst AG), 4 PW of Agitan 260 (from Munzing-Chemie, Heilbronn), 226 PW of titanium dioxide (for example from Kronos 2065), 375 PW of MOWILITH® DM 771 (about 50%) (from. HOECHST), 84 PW of Omyacarb 5 (from Omya), 84 PW of Micro Mica W1, 38 PW of Micro Talc AT 1 and 20 PW of China Clay D were added and homogenized. 11 PW of white spirit, 8 PW of butyl diglycol acetate and 4 PW of MERGAL® K 9 N (Riedel de Haen) were stirred into the resulting mixture. The pH of the resulting house paint was 8.8.
The preservatives listed in Table 2 were homogeneously dispersed into the resulting house paint.
The resulting paint sample was in each case drawn out to a film of approximately 150 g/m^2 on paper, using a knife. The paint sample prepared in this manner was subsequently dried at a temperature of 30° C. for 72 hours.
Test samples having a diameter of 5.5 cm were punched out from the paint sample. To simulate leaching by rainwater, these paint-coated test samples were watered with tap water (46.7 1/day/m^2 of paint). Test samples were taken in each case after 24 hours and air-dried for 72 hours.
To determine the microbicide concentration, in each case one specimen was extracted in methanol. The methanol extracts were analysed by HPLC. […]
column: RP-phenyl (Hypersil 5 μ) mobile phase: gradient water/acetonitrile
UV-Detector: 220 nm and 200 nm
Since in each analysis, the substances listed in Table 3 were measured as the area under the HPLC signal, it is possible to relate the leaching rates directly to the known active compounds OITZ and Mctt.

Structure (SMILES): CCCCCCCCCCn1sccc1=O [DITZ, 2-n-decyl-isothiazolin-3-one]
- chromatographic logP [1]: 4.14

Structure (SMILES): CSc1nc(NC2CC2)nc(NC(C)(C)C)n1 [Mctt, 2-methylthio-4-cyclopropylamino-6-t-butylamino-1,3,5-triazine]
- HPLC area ([2]; 0 h watering): 955.2 arbitrary units
- HPLC relative area ([2]; 0 h watering): 1
- HPLC area ([2]; 24 h watering): 787.1 arbitrary units
- HPLC relative area ([2]; 24 h watering): 0.824
- HPLC area ([2]; 48 h watering): 800.2 arbitrary units
- HPLC relative area ([2]; 48 h watering): 0.837
- HPLC area ([2]; 72 h watering): 677.6 arbitrary units
- HPLC relative area ([2]; 72 h watering): 0.708
- HPLC area ([2]; 96 h watering): 547.4 arbitrary units
- HPLC relative area ([2]; 96 h watering): 0.572

Structure (SMILES): CCCCCCCCn1sccc1=O [OITZ, 2-n-octylisothiazolin-3-one]
- chromatographic logP [1]: 2.89

Next, values leading:

- chromatographic logP [1]: 3.51
Structure (SMILES): CCCCCCCCCn1sccc1=O [NITZ, 2-n-nonylisothiazolin-3-one]

- chromatographic logP [1]: 4.76
Structure (SMILES): CCCCCCCCCCCn1sccc1=O [compound 11, 2-n-undecylisothiazolin-3-one]

- chromatographic logP [1]: 5.36
Structure (SMILES): CCCCCCCCCCCCn1sccc1=O [dodecyl-ITZ, 2-n-dodecylisothiazolin-3-one]

— patent publication US6228382A, “Microbiocidal mixtures” (ETC C.V., priority 1996, dated 2001)
